The values below come from ChEMBL document CHEMBL1133843, “3-Aryl-4-aryloyl-1-(1H-imidazol-5-yl)methylpyrrole, a novel class of farnesyltransferase inhibitors” (Bioorg Med Chem Lett, 2001).

The assay addresses Protein farnesyltransferase (Homo sapiens, UniProt P49354+P49356). The assay can be described thus: Inhibition of [3H]FPP incorporation into Ha-ras protein by Farnesyltransferase. It counts as functional.

For orientation: pIC50 means the negative decadic logarithm of the IC50, by convention in mol/L. Lower therefore signals a large IC50.

pIC50: −log10 of the molar value.

On to `Cc1ccc(C(=O)c2cn(Cc3c[nH]cn3)cc2-c2ccc3ccccc3c2)cc1`, for which the pIC50 was 5.64.

In turn, `O=C(c1ccc(Oc2ccccc2)cc1)c1cn(Cc2c[nH]cn2)cc1-c1cccc2ccccc12` had a negative-log IC50 (pIC50) of 7.80.

The molecule `O=C(c1ccccc1)c1cn(Cc2c[nH]cn2)cc1-c1cccc2ccccc12` had a pIC50 of 6.94.

Consider `O=C(c1ccccc1Br)c1cn(Cc2c[nH]cn2)cc1-c1cccc2ccccc12`, for which the pIC50 is 7.06.

As for `Cc1ccc(C(=O)c2cn(Cc3c[nH]cn3)cc2-c2c3ccccc3cc3ccccc23)cc1`, the pIC50 is 6.33.

With `O=C(c1ccc(Br)cc1)c1cn(Cc2c[nH]cn2)cc1-c1cccc2ccccc12`, the negative-log IC50 (pIC50) was 7.49.

The molecule `CSCC[C@H](NC(=O)c1ccc(CNCc2c[nH]cn2)cc1-c1ccccc1C)C(=O)O` had a pIC50 of 8.85.

The molecule `Cn1cncc1Cn1cc(C(=O)c2ccc(Oc3ccccc3)cc2)c(-c2cccc3ccccc23)c1` had a negative logarithm of the IC50 (pIC50) of 8.34.

The molecule `Cc1ccc(C(=O)c2cn(Cc3c[nH]cn3)cc2-c2cccc3ccccc23)cc1` showed a pIC50 of 7.19.
